“Also recorded” adds a separate entry of the source. Read-outs that look alike come from different tables or passages of the source.
Assays:
Nav1.4 = Nav1.4 (Rattus norvegicus, UniProt P15390); details: read-out: TTX IC50; cited from earlier work
[1] = tested on: mouse saphenous nerve C-fibers
Nav1.7 = Nav1.7 (Rattus norvegicus, UniProt O08562); details: read-out: TTX IC50; cited from earlier work
Nav1.6 = Nav1.6 (Rattus norvegicus, UniProt O88420); details: read-out: TTX IC50; cited from earlier work
Nav1.8 = Nav1.8 (Rattus norvegicus, UniProt Q62968); details: read-out: TTX IC50; cited from earlier work
Nav1.3 = Nav1.3 (Rattus norvegicus, UniProt P08104); details: read-out: TTX IC50; cited from earlier work
male CD-1 mice [2] = tested on: male CD-1 mice
[3] = cyno plasma, 37° C., incubation 0 hr (normalisation point)
hNav1.6 = hNav1.6 (Homo sapiens, UniProt Q9UQD0); experiment: cell-based; format: cell-based
male CD-1 mice [4] = details: 5.0 mg/kg s.c.
hNav1.4 = hNav1.4 (Homo sapiens, UniProt P35499); experiment: cell-based; format: cell-based; details: PX
in vivo [5] = details: male, CD-1, mouse, sc
in vivo [6] = details: male, Sprague-Dawley, rat, sc, 5 mg/kg
hNav1.7 [7] = target: T1, hNav1.7 (Homo sapiens, UniProt Q15858); experiment: cell-based; format: cell-based; details: Table 15; read-out: PX hNav1.7 Tonic IC50
[8] = tested on: TTX-sensitive Nav channels in Sprague Dawley rat DRG neuron
[9] = human plasma, 37° C., incubation 0 hr (normalisation point)
[10] = 1 mg/kg s.c.
male Sprague-Dawley rats [11] = details: 5.0 mg/kg s.c.; 2 h post peptide injection
male Sprague-Dawley rats [12] = details: 5.0 mg/kg s.c.
[13] = tested on: TTX-sensitive Nav channels in mouse DRG neuron
hNav1.7 [14] = target: T1, hNav1.7; experiment: cell-based; details: ratio of IonWorks Quattro IC50 values, Nav1.4 over Nav1.7
male CD-1 mice [15] = details: for terminal exposure (peptide plasma concentration): 2 h post peptide injection
hNav1.7 [16] = target: T1, hNav1.7; experiment: cell-based; format: cell-based
[17] = mouse plasma, 37° C., incubation 0 hr (normalisation point)
[18] = 0.1, 0.3, and 1.0 mg/kg s.c., 1-hour pre-treatment

Chain of hNav1.6 (Q9UQD0 whole entry): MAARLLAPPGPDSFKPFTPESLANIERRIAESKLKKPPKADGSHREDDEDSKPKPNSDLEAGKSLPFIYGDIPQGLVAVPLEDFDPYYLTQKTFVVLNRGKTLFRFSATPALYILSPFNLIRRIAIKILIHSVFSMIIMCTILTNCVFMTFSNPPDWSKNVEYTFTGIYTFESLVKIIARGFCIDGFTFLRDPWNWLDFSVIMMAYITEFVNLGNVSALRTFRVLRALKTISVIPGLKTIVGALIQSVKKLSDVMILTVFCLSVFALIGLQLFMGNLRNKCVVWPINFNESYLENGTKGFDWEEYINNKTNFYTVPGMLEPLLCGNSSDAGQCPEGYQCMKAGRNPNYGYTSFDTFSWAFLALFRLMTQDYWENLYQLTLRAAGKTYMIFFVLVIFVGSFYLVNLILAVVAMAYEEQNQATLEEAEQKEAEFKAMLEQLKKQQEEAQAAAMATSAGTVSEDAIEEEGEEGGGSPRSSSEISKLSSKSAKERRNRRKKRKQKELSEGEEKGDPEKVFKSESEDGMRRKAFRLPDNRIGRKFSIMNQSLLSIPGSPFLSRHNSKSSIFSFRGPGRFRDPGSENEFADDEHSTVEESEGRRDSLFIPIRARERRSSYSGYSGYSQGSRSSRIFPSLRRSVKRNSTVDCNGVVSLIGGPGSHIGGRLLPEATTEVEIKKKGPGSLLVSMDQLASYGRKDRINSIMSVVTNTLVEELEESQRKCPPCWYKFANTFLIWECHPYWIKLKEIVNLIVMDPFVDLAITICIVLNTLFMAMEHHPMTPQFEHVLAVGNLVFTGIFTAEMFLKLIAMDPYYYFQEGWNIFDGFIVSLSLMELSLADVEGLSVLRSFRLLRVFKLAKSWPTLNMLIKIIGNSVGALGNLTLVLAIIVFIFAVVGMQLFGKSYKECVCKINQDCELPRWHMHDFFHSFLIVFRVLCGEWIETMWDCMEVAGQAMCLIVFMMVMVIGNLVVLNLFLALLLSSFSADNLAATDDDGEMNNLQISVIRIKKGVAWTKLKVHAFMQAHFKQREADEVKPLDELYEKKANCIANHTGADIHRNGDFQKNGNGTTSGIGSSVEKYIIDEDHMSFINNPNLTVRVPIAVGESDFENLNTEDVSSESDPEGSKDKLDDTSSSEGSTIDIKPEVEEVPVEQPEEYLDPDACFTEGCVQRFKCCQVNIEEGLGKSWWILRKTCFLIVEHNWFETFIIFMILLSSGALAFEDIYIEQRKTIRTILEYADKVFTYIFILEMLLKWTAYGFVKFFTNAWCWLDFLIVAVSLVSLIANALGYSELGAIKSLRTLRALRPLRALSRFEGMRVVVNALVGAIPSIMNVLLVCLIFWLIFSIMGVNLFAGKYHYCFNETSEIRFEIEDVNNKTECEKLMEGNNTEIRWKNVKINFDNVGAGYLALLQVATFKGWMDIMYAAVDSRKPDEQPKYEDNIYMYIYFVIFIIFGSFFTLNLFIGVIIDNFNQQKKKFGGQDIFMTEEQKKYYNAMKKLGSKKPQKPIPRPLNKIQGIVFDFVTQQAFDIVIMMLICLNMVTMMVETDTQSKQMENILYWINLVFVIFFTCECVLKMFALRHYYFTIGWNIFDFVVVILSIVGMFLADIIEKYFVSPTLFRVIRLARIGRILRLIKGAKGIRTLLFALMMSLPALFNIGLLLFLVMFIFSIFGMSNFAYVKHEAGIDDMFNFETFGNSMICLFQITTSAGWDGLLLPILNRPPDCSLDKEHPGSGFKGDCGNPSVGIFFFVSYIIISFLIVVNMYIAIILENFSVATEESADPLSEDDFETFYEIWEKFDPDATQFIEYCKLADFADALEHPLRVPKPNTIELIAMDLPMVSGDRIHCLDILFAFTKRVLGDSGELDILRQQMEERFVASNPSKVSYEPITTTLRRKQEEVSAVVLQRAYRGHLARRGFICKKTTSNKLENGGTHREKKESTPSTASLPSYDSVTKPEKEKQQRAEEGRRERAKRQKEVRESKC
T1 sequence (Q15858 whole entry): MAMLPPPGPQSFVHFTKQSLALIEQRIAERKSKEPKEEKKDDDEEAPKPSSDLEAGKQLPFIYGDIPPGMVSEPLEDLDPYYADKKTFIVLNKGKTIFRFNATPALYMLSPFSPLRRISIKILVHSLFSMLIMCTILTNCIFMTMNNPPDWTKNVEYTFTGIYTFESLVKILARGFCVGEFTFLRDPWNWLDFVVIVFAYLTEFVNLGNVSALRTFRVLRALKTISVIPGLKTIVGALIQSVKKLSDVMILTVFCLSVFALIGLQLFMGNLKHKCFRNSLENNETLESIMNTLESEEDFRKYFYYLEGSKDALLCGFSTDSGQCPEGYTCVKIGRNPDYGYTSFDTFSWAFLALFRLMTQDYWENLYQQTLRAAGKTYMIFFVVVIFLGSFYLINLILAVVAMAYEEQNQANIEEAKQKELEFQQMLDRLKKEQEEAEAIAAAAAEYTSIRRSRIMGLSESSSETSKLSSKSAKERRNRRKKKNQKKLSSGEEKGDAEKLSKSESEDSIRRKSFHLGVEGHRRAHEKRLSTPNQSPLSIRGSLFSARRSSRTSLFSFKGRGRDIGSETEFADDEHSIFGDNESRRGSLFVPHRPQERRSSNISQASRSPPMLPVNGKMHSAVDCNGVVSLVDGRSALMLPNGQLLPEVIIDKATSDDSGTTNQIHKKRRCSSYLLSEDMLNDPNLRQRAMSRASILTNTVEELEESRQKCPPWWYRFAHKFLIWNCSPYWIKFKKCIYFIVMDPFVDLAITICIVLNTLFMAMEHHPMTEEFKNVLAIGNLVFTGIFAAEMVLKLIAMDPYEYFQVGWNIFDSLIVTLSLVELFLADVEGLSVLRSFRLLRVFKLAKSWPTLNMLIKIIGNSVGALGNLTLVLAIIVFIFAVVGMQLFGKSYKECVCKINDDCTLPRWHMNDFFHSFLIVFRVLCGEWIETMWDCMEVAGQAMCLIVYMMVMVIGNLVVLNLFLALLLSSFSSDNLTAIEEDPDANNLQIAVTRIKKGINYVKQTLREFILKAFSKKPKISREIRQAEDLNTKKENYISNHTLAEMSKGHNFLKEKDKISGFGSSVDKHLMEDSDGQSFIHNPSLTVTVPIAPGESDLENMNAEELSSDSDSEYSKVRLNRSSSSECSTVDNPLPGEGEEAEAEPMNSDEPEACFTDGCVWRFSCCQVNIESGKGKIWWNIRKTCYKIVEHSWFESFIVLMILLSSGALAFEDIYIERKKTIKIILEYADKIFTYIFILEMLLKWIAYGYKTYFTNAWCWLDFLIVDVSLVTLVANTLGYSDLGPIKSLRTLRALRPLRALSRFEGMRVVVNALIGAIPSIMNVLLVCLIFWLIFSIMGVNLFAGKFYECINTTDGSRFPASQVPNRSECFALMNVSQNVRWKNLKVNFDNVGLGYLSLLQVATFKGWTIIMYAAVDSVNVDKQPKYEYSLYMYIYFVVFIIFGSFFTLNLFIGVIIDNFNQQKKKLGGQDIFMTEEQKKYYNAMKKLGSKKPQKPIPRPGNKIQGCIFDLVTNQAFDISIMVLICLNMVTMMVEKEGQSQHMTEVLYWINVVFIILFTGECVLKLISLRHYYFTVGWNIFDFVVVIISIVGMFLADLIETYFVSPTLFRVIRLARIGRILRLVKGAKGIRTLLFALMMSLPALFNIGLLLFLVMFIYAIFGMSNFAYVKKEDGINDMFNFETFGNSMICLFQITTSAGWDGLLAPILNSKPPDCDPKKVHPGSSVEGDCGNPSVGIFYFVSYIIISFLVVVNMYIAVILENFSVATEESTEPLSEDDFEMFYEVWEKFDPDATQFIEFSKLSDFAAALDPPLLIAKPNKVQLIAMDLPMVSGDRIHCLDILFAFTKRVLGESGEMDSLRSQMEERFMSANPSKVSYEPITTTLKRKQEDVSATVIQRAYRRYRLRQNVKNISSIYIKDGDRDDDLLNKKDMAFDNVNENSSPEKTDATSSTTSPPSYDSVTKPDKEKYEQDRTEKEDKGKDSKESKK

Q: Which results are given for `NC1=N[C@H](O)[C@H]2[C@H]3O[C@]4(O)O[C@@H]([C@@H](O)[C@@]2(N1)[C@@H]4O)[C@]3(O)CO` [TTX, tetrodotoxin]?
A: IC50 (Nav1.4): 5 nM; action potential firing, in words [1]: completely blocked action potential firing; IC50 (Nav1.7): 4 nM; IC50 (Nav1.6): 1 nM; IC50 (Nav1.8): > 50000 nM; IC50 (Nav1.3): 2 to 15 nM

Q: For `CC[C@H](C)[C@H](NC(=O)[C@H](CCCCN)NC(=O)[C@H](CCCNC(=N)N)NC(=O)[C@@H]1CSSC[C@@H]2NC(=O)[C@H](C)NC(=O)[C@H](CCCNC(=N)N)NC(=O)[C@H](CCCCN)NC(=O)[C@H](CO)NC(=O)[C@H](CC(=O)O)NC(=O)[C@@H]3CSSC[C@H](NC(=O)[C@H](CCC(=O)O)NC(=O)[C@H](CC(C)C)NC(=O)CNC(=O)[C@H](CCC(=O)O)NC(=O)[C@H](CSSC[C@H](NC(=O)[C@@H](N)Cc4ccc(O)cc4)C(=O)N[C@@H](CCC(N)=O)C(=O)N[C@@H](CCCCN)C(=O)N[C@@H](Cc4c[nH]c5ccccc45)C(=O)N[C@@H](CCSC)C(=O)N[C@@H](Cc4c[nH]c5ccccc45)C(=O)N[C@@H]([C@@H](C)O)C(=O)N3)NC2=O)C(=O)N[C@@H](CCCCN)C(=O)N[C@@H](CC(C)C)C(=O)N[C@@H](Cc2c[nH]c3ccccc23)C(=O)N1)C(=O)N[C@@H](Cc1c[nH]c2ccccc12)C(N)=O` [compound 112], which terminal plasma exposure (male CD-1 mice [2]; 0.1 mg/kg s.c., 45 min post-formalin injection, mean±SEM) is on record?
A: Its terminal plasma exposure is 0.0278 ± 0.0105 µM.

Q: And the terminal plasma exposure (male CD-1 mice [2]; 0.3 mg/kg s.c., 45 min post-formalin injection)?
A: Its terminal plasma exposure is 0.121 ± 0.0411 µM.

Q: What about the “pain response relative to the vehicle, first phase” value (male CD-1 mice [2]; 1 mg/kg s.c., 1-hour pre-treatment) of the same compound?
A: The value was “may have slightly increased the pain response”.

Q: And the terminal plasma exposure (male CD-1 mice [2]; 1.0 mg/kg s.c., 45 min post-formalin injection)?
A: The terminal plasma exposure was 0.412 ± 0.0858 µM.

Q: And the “plasma concentration over the IC50 for blocking TTX-S current in mouse DRG neurons (WCPC)” value (male CD-1 mice [2]; 5.0 mg/kg s.c.)?
A: Its value is “about 10 fold”.

Q: And the terminal plasma exposure (male CD-1 mice [2]; 5.0 mg/kg s.c., 45 min post formalin injection)?
A: Its terminal plasma exposure is 2.63 ± 0.777 µM.

Q: And the “% Peptide Remaining” value [3]?
A: Its value is 100%.

Q: And the “selectivity for Nav1.7 over Nav1.6” value (hNav1.6; PatchXpress)?
A: The value was 454 fold.

Q: And the Nav1.6/Nav1.7 (hNav1.6; Table 15, ratio of PX tonic IC50 values)?
A: Its Nav1.6/Nav1.7 is 454.

Q: What about the IC50 (hNav1.6; Table 15, read-out: PX hNav1.6 Tonic IC50) of the same compound?
A: Its IC50 is 720 nM.

Q: What about the terminal plasma exposure (male CD-1 mice [4]; 2 h post peptide injection) of the same compound?
A: The terminal plasma exposure was 1.75 ± 0.536 µM.

Q: And the “thermal latency compared to vehicle (PBS)” value (male CD-1 mice [4]; CFA thermal hyperalgesia, male CD-1 mice)?
A: The value was “no effect”.

Q: And the “selectivity against hNav1.4 relative to hNav1.7” value (hNav1.4)?
A: The value was greater than 1000 fold.

Q: And the level at time molar at 2 h (in vivo [5]; 0.1 mg/kg)?
A: The level at time molar at 2 h was 24.8 ± 6.68 nM.

Q: And the level at time molar at 2 h (in vivo [5]; 0.3 mg/kg)?
A: The level at time molar at 2 h was 121 ± 29.6 nM.

Q: And the level at time molar at 2 h (in vivo [5]; 1 mg/kg)?
A: The level at time molar at 2 h was 419 ± 226 nM.

Q: And the level at time molar at 2 h (in vivo [6])?
A: Its level at time molar at 2 h is 994 ± 184 nM.

Q: What about the IC50 (hNav1.7 [7]) of the same compound?
A: Its IC50 is 1.59 nM.

Q: What about the IC50 [8] of the same compound?
A: The IC50 was 261 nM.

Q: What about the 1.x/1.7 ([8]; partially inactivated, rTTX-S / hNav1.7) of the same compound?
A: Its 1.x/1.7 is 1135.

Q: And the “% Peptide Remaining” value [9]?
A: Its value is 100%.

Q: What about the “plasma concentration over the in vitro hNav1.7 IC50 (PX)” value ([10]; CD-1 mice, for 3 h) of the same compound?
A: Its value is 26 fold.

Q: And the tolerability ([10]; mice)?
A: Its tolerability is “tolerated”.

Q: And the “terminal exposure (peptide plasma concentration)” value (from here on “terminal exposure”) (male Sprague-Dawley rats [11])?
A: Its value is 0.994 ± 0.184 µM.

Q: And the “effect in the first or acute phase (0-5 min)” value (male Sprague-Dawley rats [12]; 1-hour pre-treatment, male Sprague-Dawley rats)?
A: The value was “no effect”.

Q: What about the terminal plasma exposure (male Sprague-Dawley rats [12]; 45 min post-formalin injection) of the same compound?
A: Its terminal plasma exposure is 1.18 ± 0.156 µM.

Q: What about the 1.x/1.7 [13] of the same compound?
A: Its 1.x/1.7 is 1213.

Q: What about the “loss in potency in mouse DRG neurons relative to the human clone of Nav1.7” value ([13]; TTX-sensitive current) of the same compound?
A: The value was roughly 1000 fold.

Q: What about the 1.x/1.7 ([13]; partially inactivated, mTTX-S (fresh DRG) / hNav1.7) of the same compound?
A: Its 1.x/1.7 is 917.

Q: What about the Nav1.4/Nav1.7 (hNav1.7 [14]) of the same compound?
A: Its Nav1.4/Nav1.7 is 178.

Q: What about the “terminal exposure” value (male CD-1 mice [15]; 0.1 mg/kg s.c.) of the same compound?
A: Its value is 0.0248 ± 0.00668 µM.

Q: What about the “terminal exposure” value (male CD-1 mice [15]; 0.3 mg/kg s.c.) of the same compound?
A: Its value is 0.121 ± 0.0296 µM.

Q: And the “terminal exposure” value (male CD-1 mice [15]; 1.0 mg/kg s.c.)?
A: Its value is 0.419 ± 0.226 µM.

Q: What about the “terminal exposure” value (male CD-1 mice [15]; 5.0 mg/kg s.c.) of the same compound?
A: The value was 4.73 ± 0.584 µM.

Q: And the “total basic movement component of locomotor activity” value (male CD-1 mice [15]; [18])?
A: The value was “No doses of peptide significantly decreased exploratory behavior”.

Q: What about the “total rearing component of locomotor activity” value (male CD-1 mice [15]; [18]) of the same compound?
A: Its value is “No doses of peptide significantly decreased exploratory behavior”.

Q: And the “total basic movement, total fine movement, total rearing, or total time rearing” value (male CD-1 mice [15]; 0.1, 0.3, or 1.0 mg/kg s.c., 1-hour pre-treatment)?
A: Its value is “no effect”.

Q: And the “block of hNav1.7 current” value (hNav1.7 [16]; 100 nM)?
A: Its value is “approximately 80%”.

Q: And the “block of hNav1.7 current, in words” value (hNav1.7 [16]; 100 nM)?
A: Its value is “did not completely block Nav1.7 current; also recorded: only partial inhibition”.

Q: What about the 1.x/1.7 (hNav1.7 [16]; partially inactivated, hNav1.7 / hNav1.7) of the same compound?
A: Its 1.x/1.7 is 1.

Q: And the “% Peptide Remaining” value [17]?
A: The value was 100%.
